Measured values published in patent publication EP4512427A1, “ANTIBODY-DRUG CONJUGATES BASED ON MOLECULAR GLUE DEGRADERS AND USES THEREOF” (Mablink Bioscience, priority 2023, dated 2025).

Assays:
[1] = biological target: T1, BCRP (Homo sapiens, UniProt Q9UNQ0); assay: BCRP efflux substrate assay in MDCK-BCRP; type: in vitro ADME; settings: for efflux ratio at 60 min, 5 µM / Papp A→B at 60 min, 5 µM / Papp B→A at 60 min, 5 µM: dog, pH 7.4, MDCK-BCRP; for efflux ratio at 60 min, 5 µM: read-out: Efflux ratio B/A; for Papp A→B at 60 min, 5 µM: read-out: Papp A (donor) to B (acceptor); for Papp B→A at 60 min, 5 µM: read-out: Papp B (acceptor) to A (donor); for BCRP efflux potential: in words
T1 construct: host or cells: MDCK-BCRP (Preadyport)
T1 sequence (Q9UNQ0 1-655): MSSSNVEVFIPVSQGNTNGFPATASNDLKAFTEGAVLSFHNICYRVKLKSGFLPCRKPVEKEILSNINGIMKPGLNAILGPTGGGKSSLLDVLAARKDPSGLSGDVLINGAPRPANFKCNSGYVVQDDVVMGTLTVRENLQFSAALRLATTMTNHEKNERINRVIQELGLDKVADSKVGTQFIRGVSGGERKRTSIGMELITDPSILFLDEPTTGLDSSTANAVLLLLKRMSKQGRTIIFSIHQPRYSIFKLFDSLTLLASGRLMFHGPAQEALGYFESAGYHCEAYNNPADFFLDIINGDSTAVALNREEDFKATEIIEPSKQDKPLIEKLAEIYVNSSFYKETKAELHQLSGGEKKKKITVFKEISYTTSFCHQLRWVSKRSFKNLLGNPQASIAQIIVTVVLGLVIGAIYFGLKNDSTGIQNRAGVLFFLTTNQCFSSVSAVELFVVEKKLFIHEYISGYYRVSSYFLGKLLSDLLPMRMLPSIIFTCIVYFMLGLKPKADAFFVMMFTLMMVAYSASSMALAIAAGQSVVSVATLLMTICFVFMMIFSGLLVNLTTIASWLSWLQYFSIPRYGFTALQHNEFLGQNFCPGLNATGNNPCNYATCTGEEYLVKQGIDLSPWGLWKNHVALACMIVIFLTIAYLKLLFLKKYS
Protocol: (§1) MDR1 and BCRP efflux substrate assays were conducted in MDCK-MDR1 and MDCK-BCRP in vitro models (Preadyport™, Solvo Biotech) at Symeres (Nederland). Compound of the invention (donor well concentration of 5µM) were incubated in cell monolayer 24-transwell Preadyport system, using Preadyport recommended pH 7.4 assay buffer (donor and receiver wells). After 60 min of incubation (no shaking), samples are collected and suspended into triple volume of 66% cold acetonitrile. Samples are stored at -20°C until thawed, centrifuged and analyzed by LC-MS. Quinidine was used a positive control for the MDR1 assay, and prazosin was used as a positive control for the BCRP assay. Exatecan was used as a control, known not to be an MDR1 substrate. Residual DMSO content from compounds stock solutions was below 1% (v/v). The assay was performed in duplicate. The quantification of test compounds in donor or receptor compartment is conducted using relative LC/MS peak areas (samples of initial incubation solutions are used as a single point calibrator), without any spiked standard samples. The data is used for estimating apparent permeability (Papp) and calculation of efflux ratio.

[2] = in vitro; settings: PAMPA, pH 7.4
Protocol: Stock solutions of compounds of the invention were prepared in dimethyl sulfoxide (DMSO) to a final concentration of 10 mM. Each stock solution was diluted to 50 µM in pH 7.4 Prisma HT buffer (pION) in the presence of 10% MeOH (v/v). 200 µL were added to each well of the donor plate in quintuplicate. […] The acceptor filter plate was carefully placed on top of the donor plate to form a "sandwich." The sandwich was incubated at 25°C for 5 h, at 300 rpm. UV-vis spectra of the solutions in the blank, reference, acceptor, and donor plates were measured using a Tecan Infinite 200 PRO M Nano Plus microplate reader.

[3] = tested on: HT-29; assay: In vitro cytotoxicity assay (MTT); type: cell-based; settings: Homo sapiens, 144 h, 6 days incubation
Protocol: (§2) In vitro cytotoxicity of compounds of the disclosure was assessed on several cancerous human cell lines. Cells were plated in 96-well plates at an appropriate density depending on the cell line (between 1000 and 10 000 cells/well in 100µL of appropriate culture media) and incubated at 37°C for 24 hours. Serial dilutions of the tested compound previously dissolved in culture media (50µL) were added, and incubation was carried at 37°C out for 6 days. MTT (5mg/mL in PBS, 20µL, Sigma-Aldrich) was added into the wells, and incubation was continued for 1 to 4 hours at 37°C. Culture media was then carefully removed, and well content was homogeneously dissolved with acidified isopropanol. Absorbance values were measured on a microplate reader using a wavelength of 570 nm (with a reference wavelength of 690 nm). The IC50 concentration values compared to untreated control cells were determined using inhibition dose response curve fitting (GraphPad Prism 9). Exatecan mesylate (cat#HY-13631A) and CR8 (CAS# 294646-77-8; cat#HY-18340) were purchased from MedChemExpress (China).

[4] = tested on: KB-1; assay: In vitro cytotoxicity assay (MTT); type: cell-based; settings: Homo sapiens, KB16, 144 h, 6 days incubation
Protocol: as §2

[5] = tested on: BXPC3; assay: In vitro cytotoxicity assay (MTT); type: cell-based; settings: Homo sapiens, BXPC-3, 144 h, 6 days incubation
Protocol: as §2

[6] = tested on: MCF-7; assay: In vitro cytotoxicity assay (MTT); type: cell-based; settings: Homo sapiens, MCF7, 144 h, 6 days incubation
Protocol: as §2

[7] = tested on: BT-474; assay: In vitro cytotoxicity assay (MTT); type: cell-based, human; settings: Homo sapiens, BT-474, 144 h
Protocol: as §2

[8] = tested on: JIMT-1; assay: In vitro cytotoxicity assay (MTT); type: cell-based, human; settings: Homo sapiens, 144 h, 6 days incubation
Protocol: as §2

[9] = tested on: NCI-N87; assay: In vitro cytotoxicity assay (MTT); type: cell-based, human; settings: Homo sapiens, 6 days incubation
Protocol: as §2

[10] = tested on: MDA-MB-231; assay: In vitro cytotoxicity assay (MTT); type: cell-based, human; settings: Homo sapiens, 6 days incubation
Protocol: as §2

[11] = tested on: MDA-MB-453; assay: In vitro cytotoxicity assay (MTT); type: cell-based, human; settings: Homo sapiens, 6 days incubation
Protocol: as §2

[12] = tested on: SKBR-3; assay: In vitro cytotoxicity assay (MTT); type: cell-based, human; settings: Homo sapiens, SK-BR-3, 144 h, 6 days incubation
Protocol: as §2

[13] = biological target: T2, MDR1 (Homo sapiens, UniProt P08183); assay: MDR1 efflux substrate assay in MDCK-MDR1; type: in vitro ADME; settings: for efflux ratio at 60 min, 5 µM / Papp A→B at 60 min, 5 µM / Papp B→A at 60 min, 5 µM: dog; for efflux ratio at 60 min, 5 µM: MDCK-MDR1, pH 7.4, read-out: Efflux ratio B/A; for Papp A→B at 60 min, 5 µM / Papp B→A at 60 min, 5 µM: MDCK-MDR1, 5µM, pH 7.4; for Papp A→B at 60 min, 5 µM: read-out: Papp A (donor) to B (acceptor); for Papp B→A at 60 min, 5 µM: read-out: Papp B (acceptor) to A (donor); for MDR1 efflux potential: in words
T2 construct: host or cells: MDCK-MDR1 (Preadyport)
Protocol: as §1

[14] = tested on: HCT-116; assay: In vitro cytotoxicity assay (MTT); type: cell-based; settings: Homo sapiens, 144 h, 6 days incubation
Protocol: as §2

[15] = tested on: Caco-2; assay: In vitro cytotoxicity assay (MTT); type: cell-based; settings: Homo sapiens, 144 h, 6 days incubation
Protocol: as §2

[16] = tested on: OE-19; assay: In vitro cytotoxicity assay (MTT); type: cell-based; settings: Homo sapiens, OE19, 144 h, 6 days incubation
Protocol: as §2

[17] = tested on: A549; assay: In vitro cytotoxicity assay (MTT); type: cell-based; settings: Homo sapiens, 144 h, 6 days incubation
Protocol: as §2

[18] = tested on: CycK; assay: CycK protein quantification by Western Blot; type: cell-based, human; settings: JIMT-1 cells, 1µM, 2h
Protocol: 1×10^6 JIMT-1 cells were plated in 3mL of DMEM/FBS 90:10 (v/v) in 6-well plates and incubated overnight. Cells were treated with the compound 2384 of the invention with or without the proteasome inhibitor MG-132 (MedChemExpress, Cat HY-13259) for 2h. Cells were harvested, and protein were extracted using complete RIPA buffer (RIPA buffer, 1 mM DTT, 1M NaF, 100 mM sodium orthovanadate, phosphatase inhibitor buffer and protease inhibitors) for 1 hour on ice. Lysate were centrifuged 15min at 12 000g at 4°C. and proteins were mixed with 4x Laemmli Sample Buffer (Bio-Rad), heated at 95 °C for 5 mins and separated by SDS PAGE (PROTEAN TGX Stain-Free Gels, Bio-Rad). Proteins were then transferred onto PVDF membrane (iBlot®2 PVDF stacks, Invitrogen) using the iBlot2 device (Invitrogen) and blocked with TBS buffer (Intercept® Blocking Buffer, LI-COR Biosciences). Primary antibodies were incubated overnight at 4°C and secondary antibodies (IRDye Infrared Dyes from LI-COR Biosciences) 1 hour at room temperature. Used primary antibody were: anti-CycK (cat#A301-939A, Bethyl Laboratories, dil. 1:1000) and anti-β-actin (cat#A5441, Sigma-Aldrich, dil. 1:5000). Membranes were scanned using a c500 Imaging System (Azure Biosystems) and densitometric quantification were performed using imaged software. Protein levels were normalized against β-actin.

T2 sequence (P08183 whole entry): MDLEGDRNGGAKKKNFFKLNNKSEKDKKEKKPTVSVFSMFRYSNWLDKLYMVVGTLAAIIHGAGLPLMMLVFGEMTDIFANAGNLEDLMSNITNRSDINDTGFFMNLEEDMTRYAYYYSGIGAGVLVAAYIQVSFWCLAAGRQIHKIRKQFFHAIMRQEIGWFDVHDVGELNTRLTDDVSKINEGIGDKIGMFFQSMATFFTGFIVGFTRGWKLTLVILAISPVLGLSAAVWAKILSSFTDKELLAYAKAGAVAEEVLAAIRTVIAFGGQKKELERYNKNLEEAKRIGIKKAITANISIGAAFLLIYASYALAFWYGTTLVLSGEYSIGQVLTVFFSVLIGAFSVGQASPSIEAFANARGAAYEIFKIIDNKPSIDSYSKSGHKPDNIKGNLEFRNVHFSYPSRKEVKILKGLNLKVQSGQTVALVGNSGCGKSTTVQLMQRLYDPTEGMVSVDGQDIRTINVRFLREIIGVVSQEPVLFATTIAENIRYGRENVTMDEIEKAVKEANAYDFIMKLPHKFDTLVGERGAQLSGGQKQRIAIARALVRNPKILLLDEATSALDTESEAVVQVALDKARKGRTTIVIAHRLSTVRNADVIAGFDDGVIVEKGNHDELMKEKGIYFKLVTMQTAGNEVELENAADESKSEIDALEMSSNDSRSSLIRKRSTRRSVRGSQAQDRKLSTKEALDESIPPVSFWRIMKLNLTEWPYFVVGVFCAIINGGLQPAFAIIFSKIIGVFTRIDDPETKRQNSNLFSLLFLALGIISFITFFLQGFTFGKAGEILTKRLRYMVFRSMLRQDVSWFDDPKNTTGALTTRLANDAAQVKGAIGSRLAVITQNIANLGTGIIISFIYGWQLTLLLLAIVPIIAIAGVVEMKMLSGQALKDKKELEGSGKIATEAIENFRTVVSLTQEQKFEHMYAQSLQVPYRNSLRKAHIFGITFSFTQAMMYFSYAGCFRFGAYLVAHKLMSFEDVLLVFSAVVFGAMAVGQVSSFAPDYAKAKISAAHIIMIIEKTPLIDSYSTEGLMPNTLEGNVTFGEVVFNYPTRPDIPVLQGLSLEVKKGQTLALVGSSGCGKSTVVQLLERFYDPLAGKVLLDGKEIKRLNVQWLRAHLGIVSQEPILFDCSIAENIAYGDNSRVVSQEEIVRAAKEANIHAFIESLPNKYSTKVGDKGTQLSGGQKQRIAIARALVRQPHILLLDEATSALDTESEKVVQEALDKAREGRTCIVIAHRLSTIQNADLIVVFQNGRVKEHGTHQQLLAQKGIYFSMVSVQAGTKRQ

| SMILES | efflux ratio at 60 min, 5 µM [1] | Papp A→B at 60 min, 5 µM [1] | Papp B→A at 60 min, 5 µM [1] | Papp at 5 h, 50 µM [2] | IC50 [3] | IC50 [4] | IC50 [5] | IC50 [6] | IC50 ([7]; BT-474, 6 days incubation, MTT) | IC50 [8] | IC50 ([9]; NCI-N87, 144 h) | IC50 ([10]; MDA-MB-231, 144 h) | IC50 ([11]; MDA-MB-453, 144 h) | IC50 [12] | Papp A→B at 60 min, 5 µM [13] | Papp B→A at 60 min, 5 µM [13] | IC50 [14] | IC50 [15] | IC50 [16] | IC50 [17] | other results |
| --- | --- | --- | --- | --- | --- | --- | --- | --- | --- | --- | --- | --- | --- | --- | --- | --- | --- | --- | --- | --- | --- |
| CN(CCN)c1nc(NCc2ccc(-c3ccccn3)cc2)n2ncc(Br)c2n1 [Compound 2600] | 2.1 | 22.4 ×10⁻⁶ cm/s | 47.1 ×10⁻⁶ cm/s | 90 ×10⁻⁶ cm/s | 0.28 nM | 1.48 nM | 1.16 nM | 12.2 nM | 1.18 nM | 0.19 nM | 1.32 nM | 0.29 nM | 1.17 nM | 1.69 nM | 2.05 ×10⁻⁶ cm/s | 59.3 ×10⁻⁶ cm/s | – | – | – | – | BCRP efflux potential [1]: low level; efflux ratio at 60 min, 5 µM [13]: 28.9; MDR1 efflux potential [13]: low level |
| NC[C@H]1CC[C@H](Nc2nc(NCc3ccc(-c4ccccn4)cc3)n3ncc(Br)c3n2)CC1 [Compound 2636] | 6.21 | 3 ×10⁻⁶ cm/s | 18.6 ×10⁻⁶ cm/s | 67 ×10⁻⁶ cm/s | 1.28 nM | 8.1 nM | 4.68 nM | 33.1 nM | 3.68 nM | 0.12 nM | 2.46 nM | 1.46 nM | 1.97 nM | 0.17 nM | < 12.9 ×10⁻⁶ cm/s | 30.8 ×10⁻⁶ cm/s | – | – | – | – | – |
| N[C@H]1CCN(c2nc(NCc3ccc(-c4ccccn4)cc3)n3ncc(Br)c3n2)C1 [Compound 2655] | 3.47 | 11.1 ×10⁻⁶ cm/s | 38.7 ×10⁻⁶ cm/s | 125 ×10⁻⁶ cm/s | – | 1.66 nM | – | – | 1.57 nM | – | 1.95 nM | 0.54 nM | 0.97 nM | 0.14 nM | 5.13 ×10⁻⁶ cm/s | 26.9 ×10⁻⁶ cm/s | – | – | – | – | BCRP efflux potential [1]: low level; efflux ratio at 60 min, 5 µM [13]: 5.25; MDR1 efflux potential [13]: low level |
| N[C@H]1CC[C@@H](Nc2nc(NCc3ccc(-c4ccccn4)cc3)n3ncc(Br)c3n2)CC1 [Compound 2568] | 23.6 | 2.52 ×10⁻⁶ cm/s | 59.5 ×10⁻⁶ cm/s | 88 ×10⁻⁶ cm/s | 0.46 nM | 4.95 nM | 4.86 nM | 11.6 nM | – | 0.62 nM | – | – | – | 4.36 nM | < 0.54 ×10⁻⁶ cm/s | 40.5 ×10⁻⁶ cm/s | – | – | – | – | IC50 [7]: 1.75 nM; IC50 ([9]; 144 h): 2.22 nM; IC50 ([10]; 144 h): 0.98 nM; IC50 ([11]; 144 h): 1.67 nM |
| CC(C)c1cnn2c(NCc3ccc(-c4ccccn4)cc3)nc(N[C@H]3CC[C@H](N)CC3)nc12 [Compound 2420, N2-((1r,4r)-4-aminocyclohexyl)-8-isopropyl-N4-(4-(pyridin-2-yl)benzyl)pyrazolo[1,5-a][1,3,5]triazine-2,4-diamine] | – | – | – | – | 1.74 nM | – | – | 7.78 nM | 3.41 nM | 0.61 nM | 4.93 nM | 0.7 nM | 2.73 nM | 3.25 nM | – | – | 4.4 nM | 56.1 nM | 6.91 nM | 1.99 nM | – |
| CN(C)C/C=C/C(=O)Nc1ccc(C(=O)N2CCC[C@@H](Nc3ncc(Cl)c(-c4c[nH]c5ccccc45)n3)C2)cc1 [THZ-531, reference compound] | – | – | – | – | – | – | – | – | – | – | – | – | – | – | – | – | – | – | – | – | CycK protein content [18]: no impact on CycK protein content |
| CC(C)c1cnn2c(NCc3ccc(-c4ccccn4)cc3)nc(NC3CCNCC3)nc12 [Compound 2428] | – | – | – | – | 0.83 nM | – | – | 9.12 nM | 3.73 nM | 0.92 nM | 4.5 nM | 2.31 nM | 3.11 nM | 1.94 nM | – | – | 5.31 nM | 24.2 nM | 7.84 nM | 2.22 nM | – |
| Brc1cnn2c(NCc3ccc(-c4ccccn4)cc3)nc(NC3CCNCC3)nc12 [Compound 2388, 8-bromo-N2-(piperidin-4-yl)-N4-(4-(pyridin-2-yl)benzyl)pyrazolo[1,5-a][1,3,5]triazine-2,4-diamine] | – | – | – | – | 0.23 nM | – | 1.97 nM | 5.4 nM | 1.64 nM | 0.64 nM | 1.4 nM | 0.76 nM | 1.27 nM | 1.68 nM | – | – | 1.66 nM | 4.46 nM | 3.77 nM | 0.65 nM | – |
